Like-named read-outs stand apart in the source and are kept apart here.
Experiments:
Experiment in all cases: MIC, agar dilution, multipoint inoculator
S. aureus = assay type: cell-based, Staphylococcus aureus; settings: Staphylococcus aureus
In short: (§1)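 Each strain was spot-inoculated (10^4 CFU) onto Mueller Hinton agar plates carrying compound dilutions, using a multipoint device, and the MIC was recorded.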

MRSA = assay type: cell-based, methicillin-resistant Staphylococcus aureus
In short: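 Agar dilution MIC on Mueller Hinton agar, multipoint inoculator delivering 10^4 colony forming units per spot. MRSA values are ranges across ten clinical MRSA strains; S. aureus NCTC 6571 as reference strain.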

E. faecium = assay type: cell-based, Enterococcus faecium; settings: Enterococcus faecium
In short: as §1

S. epidemisis = assay type: cell-based, Staphylococcus epidermidis; settings: Staphylococcus epidermidis
In short: as §1

B. bronchiseptica = assay type: cell-based; settings: Bordetella bronchiseptica, NCTC8344, 18 h
In short: as §1

E. faecalis = assay type: cell-based
In short: as §1

S. aboni = assay type: cell-based; settings: S. aboni NCTC 6017; upper value of MIC reading
In short: as §1

S. haemolyticus = assay type: cell-based; settings: Staphylococcus haemolyticus, 18 h
In short: as §1

S. maltophilia = assay type: cell-based; settings: Stenotrophomonas maltophilia, NCTC10257, 18 h
In short: as §1

E. coli = assay type: cell-based, Escherichia coli; settings: Escherichia coli, 18 h, upper value of MIC reading
Description: (§2) This activity was measured using a multipoint inoculator method as follows. The MIC for each compound was measured using an agar dilution method (Onda, H., et al., Int. J. Antimicrob. Agents. 18, 263 (2001)) (Mueller Hinton agar) by means of a multipoint inoculator delivering 10^4 colony forming units per spot.

K. pneumoniae = assay type: cell-based, Klebsiella pneumoniae; settings: Klebsiella pneumoniae, 18 h
Description: as §2

S. marcesens = assay type: cell-based, Serratia marcescens; settings: Serratia marcescens, 18 h
Description: as §2

P. auriginosa = assay type: cell-based, Pseudomonas aeruginosa; settings: Pseudomonas aeruginosa, NCTC6749, 18 h; P. auriginosa NCTC 6749; upper value of MIC reading; read-out: MIC
Description: as §2

E. cloacae = assay type: cell-based, Enterobacter cloacae; settings: Enterobacter cloacae, NCTC11582, 18 h
Description: as §2

[1] = NCTC11047, 18 h, S. epidemisis NCTC 11047, upper value of MIC reading, read-out: MIC

Measured: MIC

CC1(C)S[C@@H]2[C@H](NC(=O)[C@H](N)c3ccccc3)C(=O)N2[C@H]1C(=O)O [Amp., Ampicillin, reference compound]
4 µg/mL: S. epidemisis; [1]
> 16 µg/mL: E. coli; E. coli W3110R+ | K. pneumoniae; K. pneumoniae 327, upper value of MIC reading, read-out: MIC
8 µg/mL: MRSA; Staphylococcus aureus, 18 h, MRSA Isolate 2, upper value of MIC reading, read-out: MIC | MRSA; Staphylococcus aureus, 18 h, MRSA Isolate 3, upper value of MIC reading, read-out: MIC | MRSA; Staphylococcus aureus, 18 h, MRSA Isolate 4, upper value of MIC reading, read-out: MIC | MRSA; Staphylococcus aureus, 18 h, MRSA Isolate 5, upper value of MIC reading, read-out: MIC | MRSA; Staphylococcus aureus, 18 h, MRSA Isolate 6, upper value of MIC reading, read-out: MIC | MRSA; Staphylococcus aureus, 18 h, MRSA Isolate 7, upper value of MIC reading, read-out: MIC | MRSA; Staphylococcus aureus, 18 h, MRSA Isolate 8, upper value of MIC reading, read-out: MIC | MRSA; Staphylococcus aureus, 18 h, MRSA Isolate 9, upper value of MIC reading, read-out: MIC | MRSA; Staphylococcus aureus, 18 h, MRSA Isolate 10, upper value of MIC reading, read-out: MIC | S. epidemisis; 18 h, S. epidemisis Isolate 1, upper value of MIC reading, read-out: MIC | S. marcesens; S. marcesens 4444, upper value of MIC reading, read-out: MIC
0.05 µg/mL: S. aureus; 18 h, S. aureus Cowan 1, upper value of MIC reading, read-out: MIC | S. aureus; NCTC6571, 18 h, S. aureus NCTC 6571, upper value of MIC reading, read-out: MIC | S. aureus; NCTC10788, 18 h, S. aureus NCTC 10788, upper value of MIC reading, read-out: MIC | E. faecalis; Enterococcus faecalis, 18 h, E. faecalis EBH1, upper value of MIC reading, read-out: MIC | E. faecalis; Enterococcus faecalis, 18 h, E. faecalis Isolate 1, upper value of MIC reading, read-out: MIC | E. faecalis; Enterococcus faecalis, 18 h, E. faecalis Isolate 2, upper value of MIC reading, read-out: MIC | E. faecalis; Enterococcus faecalis, 18 h, E. faecalis Isolate 3, upper value of MIC reading, read-out: MIC | S. aboni
0.12 µg/mL: MRSA; Staphylococcus aureus, 18 h, MRSA Isolate 1, upper value of MIC reading, read-out: MIC
1 µg/mL: E. faecium; NCTC7171, 18 h, E. faecium NCTC 7171, upper value of MIC reading, read-out: MIC | B. bronchiseptica; B. bronchiseptica NCTC 8344, upper value of MIC reading, read-out: MIC | S. haemolyticus; S. haemolyticus Isolate 1, upper value of MIC reading, read-out: MIC | E. coli; E. coli W3110R−
16 µg/mL: S. maltophilia; S. maltophilia NCTC 10257, upper value of MIC reading, read-out: MIC | P. auriginosa | E. cloacae; E. cloacae NCTC 11582, upper value of MIC reading, read-out: MIC
2 µg/mL: E. faecium; 18 h, E. faecium ACTCC 10541, upper value of MIC reading, read-out: MIC | E. faecalis; Enterococcus faecalis, 18 h, E. faecalis Isolate 4, upper value of MIC reading, read-out: MIC | E. faecalis; Enterococcus faecalis, 18 h, E. faecalis Isolate 5, upper value of MIC reading, read-out: MIC | E. faecalis; Enterococcus faecalis, NCTC5957, 18 h, E. faecalis NCTC 5957, upper value of MIC reading, read-out: MIC

CN(C)c1ccc(/C=N/N=C(\N)c2ccncc2)c2ccccc12 [Compound 4PYdx, N^1-[(4-dimethylamino)-1-naphthylidene]-pyridine-4-carboxamidrazone]
32 µg/mL: S. aboni | P. auriginosa
128: MRSA; MRSA Isolate 1, upper value of MIC reading, in µg/mL | MRSA; MRSA Isolate 2, upper value of MIC reading, in µg/mL | MRSA; MRSA Isolate 3, upper value of MIC reading, in µg/mL | MRSA; MRSA Isolate 4, upper value of MIC reading, in µg/mL | MRSA; MRSA Isolate 5, upper value of MIC reading, in µg/mL | MRSA; MRSA Isolate 6, upper value of MIC reading, in µg/mL | MRSA; MRSA Isolate 8, upper value of MIC reading, in µg/mL | MRSA; MRSA Isolate 9, upper value of MIC reading, in µg/mL | MRSA; MRSA Isolate 10, upper value of MIC reading, in µg/mL
256 µg/mL: E. faecium; 18 h | E. faecium; NCTC7171, 18 h | B. bronchiseptica | E. faecalis; E. faecalis EBH1, upper value of MIC reading | E. faecalis; E. faecalis Isolate 1, upper value of MIC reading | E. faecalis; E. faecalis Isolate 2, upper value of MIC reading | E. faecalis; E. faecalis Isolate 4, upper value of MIC reading | E. faecalis; Enterococcus faecalis, 18 h | E. faecalis; Enterococcus faecalis, NCTC5957, 18 h | S. haemolyticus | E. coli; E. coli W3110R− | K. pneumoniae | S. marcesens | E. cloacae
128 µg/mL: S. aureus; 18 h | S. aureus; NCTC6571, 18 h | S. aureus; NCTC10788, 18 h | MRSA; Staphylococcus aureus, 18 h | S. epidemisis; 18 h | S. maltophilia | E. coli; E. coli W3110R+
64 µg/mL: S. epidemisis; [1]
64 to 128 µg/mL: MRSA; Staphylococcus aureus, MRSA, 18 h, read-out: MRSA MIC range
